Bridge positions count the residues as written; N and C are the ends. Square brackets hold non-standard residues; d marks the D form. Ends that are not written are not given here. cellulose = not defined here; βAla = NCCC(=O)O
Key:
Type in all cases: binding
Set-up in all cases: key: No binding of immunoglobulin for the defined peptide variant, detection negative: 0; Binding of immunoglobulin for the defined peptide variant, detection positive: +
serum albumin = assay: Cellulose-immobilized 13-mer peptide variants incubated with serum albumin (negative control), anti-human IgG-AP detection; details: blocking buffer without addition, 3 h room temperature
Summary of the method: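 Peptides on cellulose via a (βA)(βA) spacer were blocked in T-TBS (pH 8.0) with 5% saccharose and 4% BSA, then exposed for 3 h at room temperature to IgG-Fc (1 μg/ml), serum diluted 1:10,000, or blocking buffer alone. Bound IgG was detected with AP-anti-human IgG (1.2 μg/ml) and NBT/BCIP colour development.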

[1] = system: immunoglobulins in human plasma; assay: Cellulose-immobilized 13-mer peptide variants incubated with human plasma, anti-human IgG-AP detection; details: human plasma as sample, diluted 1:10,000 in blocking buffer, 3 h room temperature
Summary of the method: (§1)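 Spot membrane, (βA)(βA) spacer; T-TBS pH 8.0 wash, block 5% saccharose/4% BSA. 3 h RT with IgG-Fc 1 μg/ml, serum 1:10,000, or block buffer only (specificity control). 3× wash, AP-anti-human IgG 1.2 μg/ml, NBT/BCIP in pH 9.5 buffer.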

human IgG-Fc = assay: Cellulose-immobilized 13-mer peptide variants incubated with human IgG-Fc, anti-human IgG-AP detection; details: IgG-Fc 1 μg/ml in blocking buffer, 3 h room temperature
Summary of the method: as §1

Row | Substance | Result for incubation with serum albumin (immunoglobulin binding detection) (serum albumin) | Result for incubation with human plasma (immunoglobulin binding detection) [1] | Result for incubation with human IgG-Fc (immunoglobulin binding detection) (human IgG-Fc)
1 | 03G: cellulose-bound 13-mer variant DCGWHLGELVWCT-(βA)(βA) (DCGWHLGELVWCT-{βAla-βAla-cellulose}; disulfide 2-12 (inferred); reading uncertain; also: printed as DCGWHLGELVWCT-(βA)(βA)) | 0 | 0 | 0
2 | 03H: cellulose-bound 13-mer variant DCHWHLGELVWCT-(βA)(βA) (DCHWHLGELVWCT-{βAla-βAla-cellulose}; disulfide 2-12 (inferred); reading uncertain; also: printed as DCHWHLGELVWCT-(βA)(βA)) | 0 | 0 | 0
3 | 03I: cellulose-bound 13-mer variant DCIWHLGELVWCT-(βA)(βA) (DCIWHLGELVWCT-{βAla-βAla-cellulose}; disulfide 2-12 (inferred); reading uncertain; also: printed as DCIWHLGELVWCT-(βA)(βA)) | 0 | 0 | 0
4 | 03K: cellulose-bound 13-mer variant DCKWHLGELVWCT-(βA)(βA) (DCKWHLGELVWCT-{βAla-βAla-cellulose}; disulfide 2-12 (inferred); reading uncertain; also: printed as DCKWHLGELVWCT-(βA)(βA)) | 0 | 0 | +
5 | 03L: cellulose-bound 13-mer variant DCLWHLGELVWCT-(βA)(βA) (DCLWHLGELVWCT-{βAla-βAla-cellulose}; disulfide 2-12 (inferred); reading uncertain; also: printed as DCLWHLGELVWCT-(βA)(βA)) | 0 | 0 | 0
6 | 03M: cellulose-bound 13-mer variant DCMWHLGELVWCT-(βA)(βA) (DCMWHLGELVWCT-{βAla-βAla-cellulose}; disulfide 2-12 (inferred); reading uncertain; also: printed as DCMWHLGELVWCT-(βA)(βA)) | 0 | 0 | 0
7 | 03N: cellulose-bound 13-mer variant DCNWHLGELVWCT-(βA)(βA) (DCNWHLGELVWCT-{βAla-βAla-cellulose}; disulfide 2-12 (inferred); reading uncertain; also: printed as DCNWHLGELVWCT-(βA)(βA)) | 0 | 0 | 0
8 | 03P: cellulose-bound 13-mer variant DCPWHLGELVWCT-(βA)(βA) (DCPWHLGELVWCT-{βAla-βAla-cellulose}; disulfide 2-12 (inferred); reading uncertain; also: printed as DCPWHLGELVWCT-(βA)(βA)) | 0 | 0 | 0
9 | 03Q: cellulose-bound 13-mer variant DCQWHLGELVWCT-(βA)(βA) (DCQWHLGELVWCT-{βAla-βAla-cellulose}; disulfide 2-12 (inferred); reading uncertain; also: printed as DCQWHLGELVWCT-(βA)(βA)) | 0 | 0 | +
10 | 03R: cellulose-bound 13-mer variant DCRWHLGELVWCT-(βA)(βA) (DCRWHLGELVWCT-{βAla-βAla-cellulose}; disulfide 2-12 (inferred); reading uncertain; also: printed as DCRWHLGELVWCT-(βA)(βA)) | 0 | 0 | 0
11 | 03S: cellulose-bound 13-mer variant DCSWHLGELVWCT-(βA)(βA) (DCSWHLGELVWCT-{βAla-βAla-cellulose}; disulfide 2-12 (inferred); reading uncertain; also: printed as DCSWHLGELVWCT-(βA)(βA)) | 0 | + | +
12 | 03T: cellulose-bound 13-mer variant DCTWHLGELVWCT-(βA)(βA) (DCTWHLGELVWCT-{βAla-βAla-cellulose}; disulfide 2-12 (inferred); reading uncertain; also: printed as DCTWHLGELVWCT-(βA)(βA)) | 0 | + | +
13 | 03V: cellulose-bound 13-mer variant DCVWHLGELVWCT-(βA)(βA) (DCVWHLGELVWCT-{βAla-βAla-cellulose}; disulfide 2-12 (inferred); reading uncertain; also: printed as DCVWHLGELVWCT-(βA)(βA)) | 0 | 0 | 0
14 | 03W: cellulose-bound 13-mer variant DCWWHLGELVWCT-(βA)(βA) (DCWWHLGELVWCT-{βAla-βAla-cellulose}; disulfide 2-12 (inferred); reading uncertain; also: printed as DCWWHLGELVWCT-(βA)(βA)) | 0 | 0 | 0
15 | 03Y: cellulose-bound 13-mer variant DCYWHLGELVWCT-(βA)(βA) (DCYWHLGELVWCT-{βAla-βAla-cellulose}; disulfide 2-12 (inferred); reading uncertain; also: printed as DCYWHLGELVWCT-(βA)(βA)) | 0 | 0 | 0
16 | 04A: cellulose-bound 13-mer variant DCAAHLGELVWCT-(βA)(βA) (DCAAHLGELVWCT-{βAla-βAla-cellulose}; disulfide 2-12 (inferred); reading uncertain; also: printed as DCAAHLGELVWCT-(βA)(βA)) | 0 | 0 | 0
17 | 04C: cellulose-bound 13-mer variant DCACHLGELVWCT-(βA)(βA) (DCACHLGELVWCT-{βAla-βAla-cellulose}; disulfide (positions not given here); not fully specified (bridges); printed as DCACHLGELVWCT-(βA)(βA); reading uncertain) | 0 | 0 | 0
18 | 04D: cellulose-bound 13-mer variant DCADHLGELVWCT-(βA)(βA) (DCADHLGELVWCT-{βAla-βAla-cellulose}; disulfide 2-12 (inferred); reading uncertain; also: printed as DCADHLGELVWCT-(βA)(βA)) | 0 | 0 | 0
19 | 04E: cellulose-bound 13-mer variant DCAEHLGELVWCT-(βA)(βA) (DCAEHLGELVWCT[βAla][βAla]; disulfide 2-12 (inferred); also: cellulose-bound) | 0 | + | +
20 | 04G: cellulose-bound 13-mer variant DCAGHLGELVWCT-(βA)(βA) (DCAGHLGELVWCT[βAla][βAla]; disulfide 2-12 (inferred); also: cellulose-bound) | 0 | 0 | 0
21 | 04H: cellulose-bound 13-mer variant DCAHHLGELVWCT-(βA)(βA) (DCAHHLGELVWCT[βAla][βAla]; disulfide 2-12 (inferred); also: cellulose-bound) | 0 | + | +
22 | 04I: cellulose-bound 13-mer variant DCAIHLGELVWCT-(βA)(βA) (DCAIHLGELVWCT[βAla][βAla]; disulfide 2-12 (inferred); also: cellulose-bound) | 0 | 0 | +

Source: patent US7205382B2, “Peptides, the production and use thereof for binding immunoglobulins” (Fresenius Medical Care Affina GmbH, priority 2000, dated 2007)
